Assay results reported in PubChem BioAssay AID248 (DTP/NCI, 2004).
Values joined by “and” are separate entries in the source; they are usually repeats but may differ in a detail not shown here. Identical values can stand only once. Inconclusive results and toxic doses are left out. Cut-off read from the data, not from the text of the source: active = T/C of 150% or more; inactive = T/C below 125%.

Tested on: L1210 leukemia ip in BDF1 mice, survival T/C
Experiment: NCI In Vivo Anticancer Drug Screen. Data for tumor model L1210 Leukemia (intraperitoneal) in B6D2F1 (BDF1) mice
Conditions: higher = longer survival
Outline: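 Antitumor effect is assessed in tumor-bearing animals. Survival in the compound arm is compared with a vehicle-dosed control arm and expressed as their quotient.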

[1] = endpoint: mean survival time, dose: 100.0 mg/kg/injection, schedule: Q01DX001 (ip), vehicle: carboxymethylcellulose (CMC)
[2] = endpoint: mean survival time, dose: 200.0 mg/kg/injection, schedule: Q01DX001 (ip), vehicle: carboxymethylcellulose (CMC)
[3] = endpoint: mean survival time, dose: 400.0 mg/kg/injection, schedule: Q01DX001 (ip), vehicle: carboxymethylcellulose (CMC)
[4] = endpoint: mean survival time, dose: 100.0 mg/kg/injection, schedule: Q04DX003 (ip), vehicle: saline
[5] = endpoint: mean survival time, dose: 200.0 mg/kg/injection, schedule: Q04DX003 (ip), vehicle: saline
[6] = endpoint: mean survival time, dose: 400.0 mg/kg/injection, schedule: Q04DX003 (ip), vehicle: saline
[7] = endpoint: mean survival time, dose: 100.0 mg/kg/injection, schedule: Q01DX001 (ip), vehicle: saline
[8] = endpoint: mean survival time, dose: 200.0 mg/kg/injection, schedule: Q01DX001 (ip), vehicle: saline
[9] = endpoint: mean survival time, dose: 400.0 mg/kg/injection, schedule: Q01DX001 (ip), vehicle: saline
[10] = endpoint: mean survival time, dose: 100.0 mg/kg/injection, schedule: Q01DX009 (ip), vehicle: Klucel (hydroxypropylcellulose) (HPC)
[11] = endpoint: mean survival time, dose: 200.0 mg/kg/injection, schedule: Q01DX009 (ip), vehicle: Klucel (hydroxypropylcellulose) (HPC)
[12] = endpoint: mean survival time, dose: 400.0 mg/kg/injection, schedule: Q01DX009 (ip), vehicle: Klucel (hydroxypropylcellulose) (HPC)
[13] = endpoint: mean survival time, dose: 100.0 mg/kg/injection, schedule: Q04DX002 (ip), vehicle: saline
[14] = endpoint: mean survival time, dose: 75.0 mg/kg/injection, schedule: Q01DX001 (ip), vehicle: saline
[15] = endpoint: mean survival time, dose: 150.0 mg/kg/injection, schedule: Q01DX001 (ip), vehicle: saline

Measured: T/C

O=C(O)C1C2C=CC(C2)C1(C(=O)O)c1ccccc1 (stereo not drawn)
inactive: [1] 95 % of control | endpoint: mean survival time, dose: 100.0 mg/kg/injection, schedule: Q04DX003 (ip), vehicle: carboxymethylcellulose (CMC) 98 % of control | [2] 95 % of control | endpoint: mean survival time, dose: 200.0 mg/kg/injection, schedule: Q04DX003 (ip), vehicle: carboxymethylcellulose (CMC) 92 % of control

OCCC1COc2ccccc2O1 (stereo not drawn)
inactive: [1] 97 % of control | [2] 95 % of control | [3] 103 % of control

CC(=N)c1ccc(C)cc1
inactive: endpoint: mean survival time, dose: 6.25 mg/kg/injection, schedule: Q01DX009 (ip), vehicle: saline with Tween-80 94 % of control | endpoint: mean survival time, dose: 12.5 mg/kg/injection, schedule: Q01DX009 (ip), vehicle: saline with Tween-80 96 % of control | endpoint: mean survival time, dose: 25.0 mg/kg/injection, schedule: Q01DX009 (ip), vehicle: saline with Tween-80 102 % of control

[O-][N+](=C1c2ccccc2-c2ccccc21)c1ccccc1
inactive: [4] 94 % of control | [5] 92 % of control | [6] 94 % of control

NCc1nc2ccccc2[nH]1
inactive: endpoint: mean survival time, dose: 50.0 mg/kg/injection, schedule: Q01DX001 (ip), vehicle: saline 101 % of control | [7] 103 % of control | [8] 95 % of control | [9] 95 % of control

COc1ccc(Cl)cc1NC(=O)COc1ccc(Cl)cc1
inactive: [10] 96 % of control | endpoint: mean survival time, dose: 100.0 mg/kg/injection, schedule: Q04DX003 (ip), vehicle: Klucel (hydroxypropylcellulose) (HPC) 102 % of control | [11] 107 % of control | endpoint: mean survival time, dose: 200.0 mg/kg/injection, schedule: Q04DX003 (ip), vehicle: Klucel (hydroxypropylcellulose) (HPC) 122 % of control | [12] 96 % of control | endpoint: mean survival time, dose: 400.0 mg/kg/injection, schedule: Q04DX003 (ip), vehicle: Klucel (hydroxypropylcellulose) (HPC) 90 % of control

O=C1C=C[C@H](O)[C@@]2(CO)O[C@@H]12
inactive: endpoint: median survival time, dose: 0.62 mg/kg/injection, schedule: Q01DX009 (ip), vehicle: saline with Tween-80 101 % of control | endpoint: median survival time, dose: 1.25 mg/kg/injection, schedule: Q01DX009 (ip), vehicle: saline with Tween-80 108 % of control | endpoint: median survival time, dose: 2.5 mg/kg/injection, schedule: Q01DX009 (ip), vehicle: saline with Tween-80 113 % of control | endpoint: median survival time, dose: 5.0 mg/kg/injection, schedule: Q01DX009 (ip), vehicle: saline with Tween-80 120 % of control | endpoint: median survival time, dose: 10.0 mg/kg/injection, schedule: Q01DX009 (ip), vehicle: saline with Tween-80 120 % of control

COC1CC(OC(=O)c2ccc(C)cc2)C(COC(=O)c2ccc(C)cc2)O1 (stereo not drawn)
inactive: [4] 98 % of control | [5] 102 % of control | [6] 98 % of control

O=C1NC(c2ccccc2)(c2ccccc2)C(O)N1CCO (stereo not drawn)
inactive: endpoint: mean survival time, dose: 100.0 mg/kg/injection, schedule: Q04DX003 (ip), vehicle: saline with Tween-80 101 % of control | endpoint: mean survival time, dose: 200.0 mg/kg/injection, schedule: Q04DX003 (ip), vehicle: saline with Tween-80 101 % of control | endpoint: mean survival time, dose: 400.0 mg/kg/injection, schedule: Q04DX003 (ip), vehicle: saline with Tween-80 98 % of control

CN(C)CCCCNc1ccc(NCCCCN(C)C)c2c1C(=O)c1c(O)ccc(O)c1C2=O
inactive: [13] 99 % of control | endpoint: mean survival time, dose: 200.0 mg/kg/injection, schedule: Q04DX002 (ip), vehicle: saline 105 % of control

Cc1cc2c(cc1C)N(C(=O)CN1CCSCC1)CC(=O)N2
inactive: [14] 107 % of control | endpoint: mean survival time, dose: 75.0 mg/kg/injection, schedule: Q04DX003 (ip), vehicle: saline 93 % of control | [15] 98 % of control | endpoint: mean survival time, dose: 150.0 mg/kg/injection, schedule: Q04DX003 (ip), vehicle: saline 94 % of control | endpoint: mean survival time, dose: 300.0 mg/kg/injection, schedule: Q01DX001 (ip), vehicle: saline 109 % of control | endpoint: mean survival time, dose: 300.0 mg/kg/injection, schedule: Q04DX003 (ip), vehicle: saline 91 % of control

Cc1[nH]c2ccccc2c1C1=CC(=O)c2ccccc2C1=O
inactive: [7] 93 % of control | [8] 112 % of control | [9] 98 % of control

CC(=S)SCC(C)C
inactive: endpoint: mean survival time, dose: 50.0 mg/kg/injection, schedule: Q01DX001 (ip), vehicle: carboxymethylcellulose (CMC) 101 % of control | [1] 101 % of control | [2] 104 % of control | [3] 93 % of control

C[n+]1cccc(C(=O)N/N=C/c2ccccc2)c1
inactive: endpoint: mean survival time, dose: 100.0 mg/kg/injection, schedule: Q01DX001 (ip), vehicle: saline with Tween-80 96 % of control | endpoint: mean survival time, dose: 200.0 mg/kg/injection, schedule: Q01DX001 (ip), vehicle: saline with Tween-80 96 % of control | endpoint: mean survival time, dose: 400.0 mg/kg/injection, schedule: Q01DX001 (ip), vehicle: saline with Tween-80 96 % of control

CNCC1OC(n2cc(C)c(=O)[nH]c2=O)CC1O (stereo not drawn)
inactive: endpoint: mean survival time, dose: 25.0 mg/kg/injection, schedule: Q04DX002 (ip), vehicle: saline 108 % of control | endpoint: mean survival time, dose: 50.0 mg/kg/injection, schedule: Q04DX002 (ip), vehicle: saline 115 % of control | [13] 97 % of control

CCCCCCCC[n+]1cccc(C#N)c1
inactive: endpoint: mean survival time, dose: 18.75 mg/kg/injection, schedule: Q01DX009 (ip), vehicle: saline 104 % of control | endpoint: mean survival time, dose: 37.5 mg/kg/injection, schedule: Q01DX009 (ip), vehicle: saline 91 % of control | endpoint: mean survival time, dose: 37.5 mg/kg/injection, schedule: Q04DX003 (ip), vehicle: acetone 97 % of control | [14] 91 % of control | endpoint: mean survival time, dose: 75.0 mg/kg/injection, schedule: Q01DX009 (ip), vehicle: saline 93 % of control | endpoint: mean survival time, dose: 75.0 mg/kg/injection, schedule: Q04DX003 (ip), vehicle: acetone 97 % of control | [15] 95 % of control | endpoint: mean survival time, dose: 150.0 mg/kg/injection, schedule: Q04DX003 (ip), vehicle: acetone 95 % of control

CCC/C=C(C)/C=N\NC(=O)c1ccc[n+](C)c1
inactive: endpoint: mean survival time, dose: 50.0 mg/kg/injection, schedule: Q01DX009 (ip), vehicle: saline with Tween-80 93 % of control | endpoint: mean survival time, dose: 100.0 mg/kg/injection, schedule: Q01DX009 (ip), vehicle: saline with Tween-80 97 % of control

CN(C)C(=S)S/C=C\C(=O)O
inactive: endpoint: mean survival time, dose: 25.0 mg/kg/injection, schedule: Q04DX002 (ip), vehicle: Klucel (hydroxypropylcellulose) (HPC) 90 % of control | endpoint: mean survival time, dose: 50.0 mg/kg/injection, schedule: Q04DX002 (ip), vehicle: Klucel (hydroxypropylcellulose) (HPC) 90 % of control | [10] 112 % of control | endpoint: mean survival time, dose: 100.0 mg/kg/injection, schedule: Q04DX002 (ip), vehicle: Klucel (hydroxypropylcellulose) (HPC) 94 % of control | [11] 89 % of control | endpoint: mean survival time, dose: 200.0 mg/kg/injection, schedule: Q04DX002 (ip), vehicle: Klucel (hydroxypropylcellulose) (HPC) 93 % of control and 97 % of control | [12] 99 % of control | endpoint: mean survival time, dose: 400.0 mg/kg/injection, schedule: Q04DX002 (ip), vehicle: Klucel (hydroxypropylcellulose) (HPC) 109 % of control

CC1(C)N=C(N)N=C(N)N1c1ccccc1
inactive: endpoint: mean survival time, dose: 12.0 mg/kg/injection, schedule: Q01DX009 (ip), vehicle: saline 104 % of control | endpoint: mean survival time, dose: 12.0 mg/kg/injection, schedule: Q04DX003 (ip), vehicle: saline 97 % of control | endpoint: mean survival time, dose: 25.0 mg/kg/injection, schedule: Q01DX009 (ip), vehicle: saline 99 % of control | endpoint: mean survival time, dose: 25.0 mg/kg/injection, schedule: Q04DX003 (ip), vehicle: saline 101 % of control | endpoint: mean survival time, dose: 50.0 mg/kg/injection, schedule: Q01DX009 (ip), vehicle: saline 98 % of control
